Results taken from article PMC13194042, “GABAA receptor agonists modulate intracellular Ca^2+ levels in activated human CD4^+ T cells” (Frontiers in Immunology, 2026).
Where two headings read alike, the source gives them in different places.

What was measured:
[1] = target: T1, CRAC channels (Homo sapiens, UniProt Q96D31); assay: Calcium imaging: block of GABA-mediated Ca2+ influx by CRAC channel inhibitor; type: cell-based; conditions: YM-58483 10 μM, acute application; n = 116 cells, N = 3 donors
T1 construct: endogenous in cells
Description: Human blood samples and blood buffy coats were obtained from Uppsala University Hospital (Uppsala Akademiska sjukhuset), the protocol of which was approved by the Regional Research Ethics Committee in Uppsala (Dnr 2013/347). All individuals who donated blood were voluntarily recruited. Peripheral blood mononuclear cells (PBMCs) were isolated from blood samples using density-gradient centrifugation with Ficoll-Paque™ PLUS (Sigma Aldrich, Sweden). Subsequently, CD4^+ T lymphocytes were isolated from the PBMCs by negative selection, utilizing a human CD4^+ T lymphocyte isolation kit (Miltenyi Biotec, Germany) as per the manufacturer’s instructions. The freshly isolated CD4^+ T lymphocytes (1 million cells/mL) were suspended in human plasma-like medium (HPLM) (Gibco, Fisher Scientific, Sweden) containing 10% heat-inactivated dialyzed fetal bovine serum (Gibco, Fisher Scientific, Sweden), 100 μg/mL streptomycin, 100 U/mL penicillin (Gibco, Fisher Scientific, Sweden), and 5 μM β-mercaptoethanol (Gibco, Fisher Scientific, Sweden). […]
Calcium imaging was performed as previously described ([12]). […] The area around the individual cells was marked, and absolute fluorescence intensity values (F) were extracted using ZENBlue software. The relative intensity (F/Fmedian) for each cell was calculated for every recorded image and plotted against time. […]

[2] = target: T2, CRAC channel current (Homo sapiens, UniProt Q96D31); assay: Whole-cell patch-clamp recording of CRAC-channel-mediated current; type: cell-based
T2 construct: endogenous in cells
Description: To study the effect of YM58483 and picrotoxin (PTX) on CRAC-channel-mediated currents, the electrophysiological patch-clamp recordings were done in the whole-cell configuration. The extracellular solution was composed of the following (in mM): 155 NaCl, 4.5 KCl, 2 CaCl2, 1 MgCl2, 5 HEPES, and 5.6 glucose (pH 7.4, adjusted with NaOH). The pipette solution consisted of the following (in mM): 140 Cs methanesulfonate, 10 NaCl, 3 MgCl2, 10 HEPES, and 10 EGTA (pH 7.3, with CsOH). We further examined the recovery of currents during repeated drug applications to evaluate the level of run-down and desensitization, if present. In these experiments, in order to keep the intracellular chloride concentration intact, gramicidin (2.6 μg/mL) was used to obtain the perforated configuration. The extracellular solution (in mM) contained the following: 157 NaCl, 4.5 KCl, 0.5 CaCl2, 1 MgCl2, 5 HEPES, and 5.6 glucose (pH 7.4, adjusted with NaOH), and the pipette solution consisted of the following (mM): 149 KCl, 2 CaCl2, 1 MgCl2, 1 NaCl, 10 HEPES, and 5.6 glucose (pH 7.3, adjusted with KOH). […] Recordings were performed with the help of an Axopatch 200B amplifier, filtered at 2 kHz, and digitized at 10 kHz with an analog-to-digital converter. For the recordings, the Clampex 10.5 (Molecular Devices, San Jose, CA, USA) program was used. […]

[3] = target: T3, GABAA receptors in activated human CD4+ T cells (Homo sapiens, UniProt P28476); assay: Calcium imaging: agonist-evoked intracellular Ca2+ response in activated CD4+ T cells; type: cell-based
Description: Human blood samples and blood buffy coats were obtained from Uppsala University Hospital (Uppsala Akademiska sjukhuset), the protocol of which was approved by the Regional Research Ethics Committee in Uppsala (Dnr 2013/347). All individuals who donated blood were voluntarily recruited. Peripheral blood mononuclear cells (PBMCs) were isolated from blood samples using density-gradient centrifugation with Ficoll-Paque™ PLUS (Sigma Aldrich, Sweden). Subsequently, CD4^+ T lymphocytes were isolated from the PBMCs by negative selection, utilizing a human CD4^+ T lymphocyte isolation kit (Miltenyi Biotec, Germany) as per the manufacturer’s instructions. The freshly isolated CD4^+ T lymphocytes (1 million cells/mL) were suspended in human plasma-like medium (HPLM) (Gibco, Fisher Scientific, Sweden) containing 10% heat-inactivated dialyzed fetal bovine serum (Gibco, Fisher Scientific, Sweden), 100 μg/mL streptomycin, 100 U/mL penicillin (Gibco, Fisher Scientific, Sweden), and 5 μM β-mercaptoethanol (Gibco, Fisher Scientific, Sweden). The cells were activated in a 96-well plate (1 × 10^5–1.2 × 10^5 cells/well) with 3 μg/mL plate-bound anti-CD3 antibody (BD Biosciences, USA) for 72 h. Insulin (1 nM) was added at 48 h after the activation of the cells. The anti-CD3 concentration (5 μg/mL) used by Jacobs et al. ([14]) is similar to the one employed in this study. […] Akt-dependent signaling is activated by insulin at 48 h post-activation and is reminiscent of the anti-CD28-evoked signaling ([14]).
(§1) Calcium imaging was performed as previously described ([12]). In brief, cells were loaded with 3 μM Fluo-8 AM calcium indicator (AAT Bioquest, Pleasanton, CA, USA) for 10 min at 37 °C and then seeded onto coverslips coated with 5% (3-aminopropyl)triethoxysilane (Sigma Aldrich) for 20 min at 37 °C. Calcium imaging was performed using a Zeiss LSM700 confocal microscope with a ×20 objective, capturing images at 0.5-s intervals. The recording solution was prepared by mixing two types of RPMI 1640 media, one containing 11 mM glucose (Gibco, Fisher Scientific, Sweden) and the other is glucose-free (Gibco, Fisher Scientific, Sweden). They were mixed in a 1:1 ratio, giving a final glucose concentration of 5.5 mM. The drugs were diluted in the recording solution and perfused into the chamber at specific concentrations using a peristaltic pump. After each drug application, the cells were perfused with the recording solution only to remove the drug. When the cells were again in the recording solution only, then the next test drug concentration was perfused into the chamber. This was done so that the receptors/cells had always been in a drug-free solution before a drug application, thus avoiding potential cumulative drug effects such as run-down or desensitization. The area around the individual cells was marked, and absolute fluorescence intensity values (F) were extracted using ZENBlue software. The relative intensity (F/Fmedian) for each cell was calculated for every recorded image and plotted against time. The peak relative intensity during the drug application was considered the drug’s response. Data are presented for all cells as scatter plots and box and whisker plots.
Single-cell data presentation and agonist-Ca^2+-response data were fitted in GraphPad Prism 10 (GraphPad Software Inc., La Jolla, CA, USA). The data were fitted using nonlinear regression with a standard dose–response model:
(F/Fmedian)max=[agonist]/[agonist]+(EC50)agonist

[4] = target: T4, KCa3.1 channels (Homo sapiens, UniProt O15554); assay: Calcium imaging: block of GABA-activated Ca2+ signal by KCa3.1 blocker; type: cell-based; conditions: GABA 500 nM; TRAM-34 1 µM; average, n = 169 cells, N = 3 donors
T4 construct: endogenous in cells
Description: Peripheral blood mononuclear cells (PBMCs) were isolated from blood samples using density-gradient centrifugation with Ficoll-Paque™ PLUS (Sigma Aldrich, Sweden). Subsequently, CD4^+ T lymphocytes were isolated from the PBMCs by negative selection, utilizing a human CD4^+ T lymphocyte isolation kit (Miltenyi Biotec, Germany) as per the manufacturer’s instructions. The freshly isolated CD4^+ T lymphocytes (1 million cells/mL) were suspended in human plasma-like medium (HPLM) (Gibco, Fisher Scientific, Sweden) containing 10% heat-inactivated dialyzed fetal bovine serum (Gibco, Fisher Scientific, Sweden), 100 μg/mL streptomycin, 100 U/mL penicillin (Gibco, Fisher Scientific, Sweden), and 5 μM β-mercaptoethanol (Gibco, Fisher Scientific, Sweden). The cells were activated in a 96-well plate (1 × 10^5–1.2 × 10^5 cells/well) with 3 μg/mL plate-bound anti-CD3 antibody (BD Biosciences, USA) for 72 h. […]
In brief, cells were loaded with 3 μM Fluo-8 AM calcium indicator (AAT Bioquest, Pleasanton, CA, USA) for 10 min at 37 °C and then seeded onto coverslips coated with 5% (3-aminopropyl)triethoxysilane (Sigma Aldrich) for 20 min at 37 °C. […] The area around the individual cells was marked, and absolute fluorescence intensity values (F) were extracted using ZENBlue software. The relative intensity (F/Fmedian) for each cell was calculated for every recorded image and plotted against time. […]

[5] = target: T3, GABAA receptors in activated human CD4+ T cells; conditions: ref [12], cited from earlier work
[6] = tested on: human resting CD4+ T cells; assay: Calcium imaging in resting CD4+ T cells; type: cell-based; conditions: GABA 500 nM; n = 47 cells
Description: as §1, with “This was done so that the receptors/cells had always been in a drug-free solution before a drug application, thus avoiding potential cumulative drug effects such as run-down or desensitization.” left out, “The peak relative intensity during the drug application was considered the drug’s response. Data are presented for all cells as scatter plots and box and whisker plots.” left out

[7] = read-out: EC50, half-maximal activation concentration of the evoked Ca2+ signal; activated CD4+ T cells, 72 h post-activation, 1 nM insulin last 24 h, 5.5 mM glucose

T3 sequence (P28476 21-465): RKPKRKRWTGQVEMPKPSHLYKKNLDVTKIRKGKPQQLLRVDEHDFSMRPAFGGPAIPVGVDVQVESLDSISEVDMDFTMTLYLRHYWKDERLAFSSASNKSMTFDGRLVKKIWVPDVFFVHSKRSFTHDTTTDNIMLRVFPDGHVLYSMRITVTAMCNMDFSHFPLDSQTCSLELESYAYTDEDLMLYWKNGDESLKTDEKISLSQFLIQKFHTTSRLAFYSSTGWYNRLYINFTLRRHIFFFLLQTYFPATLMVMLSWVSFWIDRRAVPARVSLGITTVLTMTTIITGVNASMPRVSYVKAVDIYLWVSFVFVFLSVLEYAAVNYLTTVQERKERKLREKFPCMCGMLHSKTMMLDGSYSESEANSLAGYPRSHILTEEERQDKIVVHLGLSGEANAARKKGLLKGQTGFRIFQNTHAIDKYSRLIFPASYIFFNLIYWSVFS
T2 sequence (Q96D31 whole entry): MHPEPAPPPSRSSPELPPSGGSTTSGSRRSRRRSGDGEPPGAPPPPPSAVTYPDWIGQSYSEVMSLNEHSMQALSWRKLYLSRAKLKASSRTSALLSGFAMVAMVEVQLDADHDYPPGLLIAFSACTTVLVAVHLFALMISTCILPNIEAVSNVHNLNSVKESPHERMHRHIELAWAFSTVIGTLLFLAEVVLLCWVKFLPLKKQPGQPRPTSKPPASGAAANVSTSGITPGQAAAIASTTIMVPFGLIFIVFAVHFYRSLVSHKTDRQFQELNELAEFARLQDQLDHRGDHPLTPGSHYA
T4 sequence (O15554 whole entry): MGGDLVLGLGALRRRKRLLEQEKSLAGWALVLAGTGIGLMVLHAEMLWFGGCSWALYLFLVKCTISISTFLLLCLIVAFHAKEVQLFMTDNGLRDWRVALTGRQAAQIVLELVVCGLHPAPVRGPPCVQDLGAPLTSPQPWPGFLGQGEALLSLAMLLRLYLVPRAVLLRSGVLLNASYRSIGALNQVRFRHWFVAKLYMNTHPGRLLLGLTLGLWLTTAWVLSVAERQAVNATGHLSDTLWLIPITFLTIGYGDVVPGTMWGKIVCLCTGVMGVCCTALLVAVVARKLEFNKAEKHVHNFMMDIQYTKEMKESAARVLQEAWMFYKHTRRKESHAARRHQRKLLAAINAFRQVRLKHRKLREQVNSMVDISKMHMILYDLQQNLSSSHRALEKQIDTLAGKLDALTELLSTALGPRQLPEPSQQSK
T1 sequence (Q96D31 whole entry): as the sequence (Q96D31 whole entry) above

## Cc1nnsc1C(=O)Nc1ccc(-n2nc(C(F)(F)F)cc2C(F)(F)F)cc1 [YM58483]
[1]
  effect on GABA (500 nM)-evoked increase in intracellular Ca2+ levels: inhibited
[2]; 10 μM YM58483, whole-cell, voltage ramps, current normalized to control
  reduction of the Ca2+ (CRAC channel) current: approximately 40%

## Oc1noc2c1CCNC2 [THIP, 4,5,6,7-tetrahydroisoxazolo(5,4-c)pyridin-3-ol]
[3]; in 100 nM THIP
  relative maximum Ca2+ signal (F/Fmedian): 1.20
[3]; [7]
  EC50: 0.005 nM

## NCc1cc(=O)[nH]o1 [muscimol]
[3]; at 1 μM muscimol
  relative maximum Ca2+ signal (F/Fmedian): approximately 1.17
[3]; [7]
  EC50: 0.162 nM

## O=C(O)C1=CCNCC1 [isoguvacine]
[3]; activated CD4+ T cells, 72 h post-activation, 1 nM insulin last 24 h, 5.5 mM glucose; read-out: EC50, half-maximal activation concentration of the evoked Ca2+ signal
  EC50: 54.4 nM
[3]; in 10 μM isoguvacine
  relative maximum Ca2+ signal (F/Fmedian): 1.13

## Clc1ccccc1C(c1ccccc1)(c1ccccc1)n1cccn1 [TRAM-34]
[4]
  inhibition of GABA-induced increase in intracellular Ca2+ levels: ~100%

## Picrotoxin
[5]
  effect on muscimol (500 nM)- or TACA (500 nM)-evoked Ca2+ signals: blocked
[2]; whole-cell, current at -80 mV normalized to control, n = 3 cells, N = 2 donors
  effect on the Ca2+ (CRAC channel) current: did not reduce the Ca^2+ current

## NC/C=C/C(=O)O [TACA, trans-4-aminocrotonic acid]
[3]; TACA vs GABA
  EC50 for the Ca2+-evoked signal relative to GABA (fold higher): approximately 500 fold
[3]; in 500 nM TACA
  relative maximum Ca2+ signal (F/Fmedian): 1.10
[3]; [7]
  EC50: 2.2 nM

## NCCCC(=O)O [GABA, γ-Aminobutyric acid]
[6]
  Ca2+ response in resting CD4+ T cells: does not evoke a calcium response
[5]; read-out: EC50 of the GABA-evoked Ca2+ signal
  EC50: 0.005 nM
